Reference: US8021853B2, “Inhibition of the β3 subunit of L-type Ca2+ channels” (priority 2002, dated 2011)

Legend:
[1] = test system: islets from both wild type and β3−/− mice; assay: glucose-induced [Ca2+]i oscillations in islets/β-cells (fura-2 340/380 nm fluorescence ratio); type: cell-based, mouse
Text: Changes in [Ca^2+]i were next evaluated. […] The changes in [Ca^2+]i subsequent to the initial increase were categorized into three groups: slow oscillations (period of approximately 160 seconds), fast oscillations (period of approximately 10 seconds) and no oscillations. In wild type mice, 43 recordings (43 islets) were made.

[2] = test system: islets from both β3−/− and wild type mice; assay: carbamylcholine-induced activation of PLC, [Ca2+]i in islets; type: cell-based, mouse
Protocol: (§1) The whole-cell configuration of the patch-clamp technique was performed as follows: pipettes were pulled from borosilicate glass, coated with Sylgard near the tips and fire-polished. The pipettes ([…]) were filled with a solution containing 150 mM N-methyl-D-glucamine, 125 mM HCl, 1.2 mM MgCl2, 10 mM EGTA, 5 mM HEPES and 3 mM MgATP. pH was adjusted to 7.15 with KOH. Bath buffer contained (in mM) NaCl 138, KCl 5.6, MgCl2 1.2, CaCl2 10, HEPES 5 and pH 7.4. Islets or isolated cells were loaded with 2 μM fura 2/AM for 30 min in KRBB. For measurements of CCh (carbamylcholine) effects in Ca^2+-free medium, KRBB containing no Ca^2+ and 100 μM EGTA was used. After loading, a single islet or cells attached to a coverslip were transferred to an open perfusion chamber and maintained at 37° C. Measurements of 340/380 nm fluorescence ratio, reflecting [Ca^2+]i, were done as described in the art (Zaitsev, S. V. et al. 1995, Proc. Natl. Acad. Sci. USA 92:9712-9716). Time constant of decay in [Ca^2+]i was calculated with a double exponential decay equation using quasi Newton algorithm (Statistica for Windows, v. 5.0, StatSoft, Inc., USA). For measurements of [Ca^2+]ER, the low affinity Ca^2+-sensitive fluorescent dye X-Rhod-5N (Molecular Probes) was employed. […] were incubated with 5 μM X-Rhod-5N/AM for 1 hour at 4° C. to ensure dye loading into intracellular compartments. […]

[3] = test system: islets from β3−/− mice compared to wild type mice; assay: increase in [Ca2+]i on addition of 2.5 mM extracellular Ca2+ after depletion of the Ca2+-pool; type: cell-based, mouse; settings: 2 μM; Ca2+-pool depleted
Protocol: as §1

[4] = test system: islets from both wild type and β3−/− mice; settings: treatment of β-cells; Roe et al. 1998; cited from earlier work
[5] = test system: islets from control and β3−/− mice; assay: insulin release in response to glucose from isolated islets; type: cell-based, mouse; settings: islets treated with thapsigargin
Protocol: Islets of Langerhans were isolated by collagenase digestion and maintained overnight in RPMI 1640 culture medium (Flow Laboratories, UK). Single cells, obtained by shaking the islets in Ca^2+-free medium, were seeded into plastic dishes. For measurements of insulin release, islets were pre-incubated in Krebs-Ringer bicarbonate buffer (KRBB) for 30 min at 37° C. Groups of 3 islets were transferred to tubes containing 0.3 ml KRBB with test substances and incubated for another 30 min at 37° C. The incubation was terminated by cooling the samples on ice. Samples were stored at −20° C. until insulin was analyzed.
To further verify this notion, changes in [Ca^2+]i and insulin exocytosis were measured simultaneously, applying a depolarizing pulse protocol mimicking an oscillatory versus a monophasic increase in [Ca^2+]i.

NCCOB(c1ccccc1)c1ccccc1 [2-APB, 2-aminoethoxydiphenyl borane]
effect on [Ca2+]i oscillations (blocking the InsP3-receptor) ([1]; β-cells from β3−/− mice): transformed [Ca^2+]i oscillations from fast into slow

C[N+](C)(C)CCOC(N)=O.[Cl-] [Carbamylcholine, carbamylcholine]
effect on [Ca2+]i [2]: produced a transient increase in [Ca^2+]i

[Gd] [gadolinium]
effect on the increase in [Ca2+]i after addition of 2.5 mM extracellular Ca2+ [3]: did not affect

C/C=C(/C)C(=O)O[C@H]1C(C)=C2[C@H]([C@@H]1OC(=O)CCCCCCC)[C@@](C)(OC(C)=O)C[C@H](OC(=O)CCC)[C@@]1(O)[C@H]2OC(=O)[C@@]1(C)O [thapsigargin]
effect on glucose-induced oscillations in [Ca2+]i ([1]; 1 μM, 30 min preincubation, islets from both wild type and β3−/− mice): prevented glucose-induced oscillations in [Ca^2+]i | effect on [Ca2+]i oscillations [4]: transform [Ca^2+]i oscillations into a monophasic elevation in [Ca^2+]i | insulin release in response to glucose, control versus β3−/− mice [5]: no different
